Test system: C57Bl6 mice on a high fat diet
Test: GPR120 DIO Mice OGTT Screening
Format: in vivo, mouse
Settings: 10 mg/kg dosed 30 min before glucose, glucose AUC −30 to 90 min, change from vehicle, printed as %
Procedure: 18-22 week old, C57Bl6 mice on a high fat diet (60% HFD) for 12-16 weeks (ave. body weight ˜37-41 g) were fasted for 6 hr, with removal of food occurring at 7 am on the morning of the study. The animals were sorted into treatment groups the day before the study by body weight. Animals outside the bounds of ˜30-50 g were left out of the study. The animals had been handled and shammed a total of 5-8 days (1-3 days immediately prior to the study). Glucose (in 1 ml syringes) was drawn up the morning of the study. Test compounds were kept spinning and were only drawn into 1 ml syringes prior to study commencement. Animals were bled via tail snip to determine basal glucose levels prior to dosing of treatments. […]
Animals were moved into the testing room at ˜9-11 am, to yield them time to acclimate. […] All groups were dosed 30 minutes prior to glucose administration at a dose volume of 10 ml/kg (the dose volume was calculated separately for each individual animal). […]
Thirty minutes after the first dose (with test compound) animals were bled again for a second baseline, or T=0, and immediately dosed with glucose (20% solution; TEKNOVA, 250 ml sterile bottle w/catalogue number G0525) via a PO injection. The exact dose volume for glucose was also calculated separately for each individual animal.
Blood glucose was measured at 15, 30, 45, 60, and 90 minutes post-glucose administration via the snipped tail. […]

Cc1cc2c(F)c(OC(F)(F)F)c(F)c(COc3ccc(CCC(=O)O)c(F)c3F)c2o1 [Compound 75, 3-(4-{[4,6-Difluoro-2-methyl-5-(trifluoromethoxy)-1-benzofuran-7-yl]methoxy}-2,3-difluorophenyl)propanoic acid]
DIO Lowering Glucose AUC (−30 to 90) @10 mg/kg: −31%

Cc1cc2cc(Cl)c(C)c(COc3ccc(CCC(=O)O)c(C)c3C)c2o1 [Compound 85, 3-{4-[(5-Chloro-2,6-dimethyl-1-benzofuran-7-yl)methoxy]-2,3-dimethylphenyl}propanoic acid]
DIO Lowering Glucose AUC (−30 to 90) @10 mg/kg: −37%

From patent US9562053B2, “Benzo-fused heterocyclic derivatives useful as agonists of GPR120” (Janssen Pharmaceutica NV, priority 2013, dated 2017)
